Paper PMC8201443 (Journal of Medicinal Chemistry, 2021)
“Also recorded” adds a separate entry of the source. Read-outs that look alike come from different tables or passages of the source.

Tests used:
[1] = tested on: MV4-11, MHH-CALL-4, HD-MB03, MB002 and MB004 cells; assay type: cell-based, human
MV4-11 cells [2] = assay: Cell viability; assay type: cell-based, human; details: for activity in cells (in words): cellular assays of Table 2; for EC50: Homo sapiens
hGSPT1-HiBit = hGSPT1-HiBit (Homo sapiens, UniProt P15170+Q96SW2); assay: hGSPT1 HiBiT assay in HEK293 cells; assay type: cell-based; details: SAR discussion of Table 2
MB002 cells = assay: Cell viability; assay type: cell-based; details: Homo sapiens, MB002, 72 h, read-out: EC50 (nM) MB002
IKZF1 [3] = target: T1, IKZF1 (Homo sapiens, UniProt Q13422); assay: Immunoblot, IKZF1 degradation in MHH-CALL-4 cells; assay type: cell-based; details: any concentration tested
IKZF1(ZF2)-CRBN/DDB1 = IKZF1(ZF2)-CRBN/DDB1 (Homo sapiens, UniProt Q96SW2); assay: AlphaScreen assay, IKZF1; assay type: biochemical; details: dose response up to highest concentration
MV4-11 cells [4] = assay: Lenalidomide competition assay, MV4-11 viability; assay type: cell-based, human; details: MV4-11, co-treatment with 10 μM lenalidomide, 3 days
[5] = tested on: CRBN knockout MV4-11 cells; assay: Cell viability, wild-type vs CRBN knockout MV4-11 cells; assay type: cell-based, human; details: 3 days
[6] = tested on: MV4-11 cells stably expressing GSPT1(G575N)-FLAG; assay type: cell-based, human
GSPT1(G575N) = GSPT1(G575N) (Homo sapiens, UniProt P15170, G437N); assay type: cell-based
caspase 3/7 = assay: Caspase-Glo 3/7 activity assay in MV4-11 cells; assay type: cell-based, human; details: MV4-11, 10 and 100 nM; timepoints 4, 8 and 24 h
IKZF1 [7] = target: T1, IKZF1; details: for IKZF1 protein levels in GSPT1(G575N) mutant cell line (in words): MV4-11 GSPT1(G575N)-FLAG cells, 24 h; for IKZF1 degradation after 4 h (in words): MV4-11 cells, any concentration tested
GSPT1 = GSPT1 (Homo sapiens, UniProt P15170+Q96SW2); assay: Immunoblot, GSPT1 degradation in MV4-11 cells; assay type: cell-based; details: MV4-11, 4 h
MV4-11 cells [8] = assay: TMT quantitative proteomics in MV4-11 cells; assay type: cell-based, human; details: 1 μM, 4 h
[9] = Liver microsomes stability assay, mouse; assay type: in vitro ADME; details: CD-1, mouse, pH 7.4
[10] = Liver microsomes stability assay, human; assay type: in vitro ADME; details: pooled liver microsomes, pH 7.4
[11] = more potent than lenalidomide; cited from earlier work

T1 sequence (Q96SW2 whole entry partner): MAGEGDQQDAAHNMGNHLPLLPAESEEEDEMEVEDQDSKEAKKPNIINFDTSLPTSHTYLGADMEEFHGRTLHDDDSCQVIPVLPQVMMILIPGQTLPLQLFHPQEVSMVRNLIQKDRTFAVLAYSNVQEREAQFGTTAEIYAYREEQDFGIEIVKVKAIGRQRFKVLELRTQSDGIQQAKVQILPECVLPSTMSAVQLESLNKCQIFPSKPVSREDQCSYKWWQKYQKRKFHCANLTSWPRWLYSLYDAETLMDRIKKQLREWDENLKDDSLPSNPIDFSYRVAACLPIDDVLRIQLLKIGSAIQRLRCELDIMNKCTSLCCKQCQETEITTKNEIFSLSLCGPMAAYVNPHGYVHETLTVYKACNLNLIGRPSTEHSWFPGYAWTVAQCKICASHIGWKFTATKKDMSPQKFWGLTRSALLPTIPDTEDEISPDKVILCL
T1 sequence (Q16531 whole entry partner): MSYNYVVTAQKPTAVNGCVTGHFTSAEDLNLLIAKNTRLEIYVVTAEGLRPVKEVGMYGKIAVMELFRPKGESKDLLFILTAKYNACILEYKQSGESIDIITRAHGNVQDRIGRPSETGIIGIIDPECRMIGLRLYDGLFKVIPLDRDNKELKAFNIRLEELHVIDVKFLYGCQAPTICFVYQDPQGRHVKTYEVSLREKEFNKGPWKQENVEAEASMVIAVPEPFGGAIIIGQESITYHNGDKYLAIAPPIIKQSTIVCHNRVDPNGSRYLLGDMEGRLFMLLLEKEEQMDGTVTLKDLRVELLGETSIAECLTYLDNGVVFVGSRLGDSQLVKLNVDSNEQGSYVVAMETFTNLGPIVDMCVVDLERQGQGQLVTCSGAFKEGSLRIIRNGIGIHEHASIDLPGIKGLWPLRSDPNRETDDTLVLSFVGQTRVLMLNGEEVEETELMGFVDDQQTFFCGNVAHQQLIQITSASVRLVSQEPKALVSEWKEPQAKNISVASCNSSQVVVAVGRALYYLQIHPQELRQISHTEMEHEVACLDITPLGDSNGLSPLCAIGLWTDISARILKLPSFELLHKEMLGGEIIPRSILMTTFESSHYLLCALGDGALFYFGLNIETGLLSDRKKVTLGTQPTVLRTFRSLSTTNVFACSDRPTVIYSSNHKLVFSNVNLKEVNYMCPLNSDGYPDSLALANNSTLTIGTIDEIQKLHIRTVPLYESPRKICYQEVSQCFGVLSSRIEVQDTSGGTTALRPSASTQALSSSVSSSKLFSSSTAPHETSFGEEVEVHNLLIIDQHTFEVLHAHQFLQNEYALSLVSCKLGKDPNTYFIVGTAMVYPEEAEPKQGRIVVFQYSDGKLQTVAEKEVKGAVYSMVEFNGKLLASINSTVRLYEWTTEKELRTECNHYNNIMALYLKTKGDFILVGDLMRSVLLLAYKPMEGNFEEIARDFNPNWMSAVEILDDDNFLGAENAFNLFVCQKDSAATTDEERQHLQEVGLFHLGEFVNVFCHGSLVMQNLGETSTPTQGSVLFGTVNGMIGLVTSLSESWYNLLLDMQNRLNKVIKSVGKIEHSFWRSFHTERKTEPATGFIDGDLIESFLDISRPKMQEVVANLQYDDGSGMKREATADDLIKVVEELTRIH
T1 sequence (Q13422 whole entry): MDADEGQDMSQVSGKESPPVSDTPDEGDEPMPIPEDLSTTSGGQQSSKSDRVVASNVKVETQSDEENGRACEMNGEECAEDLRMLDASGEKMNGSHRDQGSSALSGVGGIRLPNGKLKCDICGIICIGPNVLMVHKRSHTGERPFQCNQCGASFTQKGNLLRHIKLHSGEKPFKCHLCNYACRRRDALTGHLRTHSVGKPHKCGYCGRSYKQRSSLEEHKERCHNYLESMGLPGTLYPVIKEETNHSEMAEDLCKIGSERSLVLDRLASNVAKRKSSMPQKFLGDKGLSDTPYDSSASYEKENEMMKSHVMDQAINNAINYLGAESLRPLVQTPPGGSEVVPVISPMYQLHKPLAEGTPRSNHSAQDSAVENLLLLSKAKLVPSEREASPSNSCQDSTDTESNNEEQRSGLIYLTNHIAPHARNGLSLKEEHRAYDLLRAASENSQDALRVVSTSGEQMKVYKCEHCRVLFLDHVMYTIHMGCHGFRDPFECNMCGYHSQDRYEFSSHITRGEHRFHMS
Chain of IKZF1(ZF2)-CRBN/DDB1 (Q96SW2 40-442 limits assumed): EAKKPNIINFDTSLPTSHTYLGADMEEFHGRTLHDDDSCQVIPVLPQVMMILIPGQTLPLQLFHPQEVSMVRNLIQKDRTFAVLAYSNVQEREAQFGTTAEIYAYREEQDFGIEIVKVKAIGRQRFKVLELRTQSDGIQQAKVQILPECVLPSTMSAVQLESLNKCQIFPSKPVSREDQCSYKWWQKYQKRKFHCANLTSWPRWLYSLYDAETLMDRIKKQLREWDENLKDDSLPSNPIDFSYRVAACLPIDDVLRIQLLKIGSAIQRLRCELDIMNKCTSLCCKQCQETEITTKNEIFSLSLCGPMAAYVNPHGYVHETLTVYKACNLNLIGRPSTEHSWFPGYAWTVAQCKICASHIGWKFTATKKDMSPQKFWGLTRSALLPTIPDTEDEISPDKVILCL
Chain of IKZF1(ZF2)-CRBN/DDB1 (Q16531 whole entry partner): as the sequence (Q16531 whole entry partner) above
Chain of GSPT1(G575N) (Q96SW2 whole entry partner): as the sequence (Q96SW2 whole entry partner) above
Chain of GSPT1(G575N) (Q16531 whole entry partner): as the sequence (Q16531 whole entry partner) above
Chain of GSPT1(G575N) (P15170 1-637 isoform P15170-3 G575N): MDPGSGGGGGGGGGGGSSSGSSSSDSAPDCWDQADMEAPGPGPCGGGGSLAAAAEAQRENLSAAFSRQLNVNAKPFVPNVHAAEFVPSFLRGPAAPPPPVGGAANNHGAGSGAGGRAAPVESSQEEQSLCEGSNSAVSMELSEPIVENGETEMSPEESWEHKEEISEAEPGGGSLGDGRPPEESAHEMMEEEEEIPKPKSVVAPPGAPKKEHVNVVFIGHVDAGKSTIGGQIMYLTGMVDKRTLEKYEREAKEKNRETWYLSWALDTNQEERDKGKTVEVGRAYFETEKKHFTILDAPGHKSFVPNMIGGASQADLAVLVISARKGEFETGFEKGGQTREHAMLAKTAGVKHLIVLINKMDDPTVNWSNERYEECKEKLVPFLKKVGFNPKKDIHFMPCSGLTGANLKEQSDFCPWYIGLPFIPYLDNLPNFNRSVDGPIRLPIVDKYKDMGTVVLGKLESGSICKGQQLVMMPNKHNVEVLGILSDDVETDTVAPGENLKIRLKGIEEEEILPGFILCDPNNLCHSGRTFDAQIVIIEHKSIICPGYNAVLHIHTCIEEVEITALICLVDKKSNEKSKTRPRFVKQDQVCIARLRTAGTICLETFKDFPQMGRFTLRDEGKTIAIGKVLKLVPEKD
Chain of hGSPT1-HiBit (P15170 1-637 isoform P15170-3): as the sequence (P15170 1-637 isoform P15170-3 G575N) above, with N575G counted along it
Chain of hGSPT1-HiBit (Q96SW2 whole entry): as the sequence (Q96SW2 whole entry partner) above
Chain of hGSPT1-HiBit (Q16531 whole entry partner): as the sequence (Q16531 whole entry partner) above
Chain of GSPT1 (P15170 1-637 isoform P15170-3): as the sequence (P15170 1-637 isoform P15170-3 G575N) above, with N575G counted along it
Chain of GSPT1 (Q96SW2 whole entry): as the sequence (Q96SW2 whole entry partner) above
Chain of GSPT1 (Q16531 whole entry partner): as the sequence (Q16531 whole entry partner) above

In the case of `Nc1cccc2c1CN(C1CCC(=O)NC1=O)C2=O` (stereo not shown) [lenalidomide], the “antiproliferative effect across the five cell lines (in words)” value [1] is reported as “insensitive”.

With `COc1ccccc1S(=O)(=O)Nc1ccc2c(c1)C(=O)N(C1CCC(=O)NC1=O)C2=O` (stereo not shown) [compound 12, N-(2-(2,6-Dioxopiperidin-3-yl)-1,3-dioxoisoindolin-5-yl)-2-methoxybenzenesulfonamide] the “activity in cells (in words)” value (MV4-11 cells [2]) was “inactive in cells”.

With `O=C1CCC(N2C(=O)c3ccc(NS(=O)(=O)c4ccccc4C(F)(F)F)cc3C2=O)C(=O)N1` (stereo not shown) [compound 14, N-(2-(2,6-Dioxopiperidin-3-yl)-1,3-dioxoisoindolin-5-yl)-2-(trifluoromethyl)benzenesulfonamide] the “GSPT1 degradation (in words)” value (hGSPT1-HiBit) was “potent degrader of GSPT1”.

For `O=C1CCC(N2C(=O)c3ccc(NS(=O)(=O)c4cccc(Cl)c4)cc3C2=O)C(=O)N1` (stereo not shown) [compound 15, 3-Chloro-N-(2-(2,6-dioxopiperidin-3-yl)-1,3-dioxoisoindolin-5-yl)benzenesulfonamide], the “activity in cells (in words)” value (MV4-11 cells [2]) was “lack of potent cell activity”.

In the case of `O=C1CCC(N2C(=O)c3ccc(NS(=O)(=O)c4ccc(OC(F)(F)F)cc4)cc3C2=O)C(=O)N1` (stereo not shown) [compound 11, N-(2-(2,6-Dioxopiperidin-3-yl)-1,3-dioxoisoindolin-5-yl)-4-(trifluoromethoxy)benzenesulfonamide], the “activity in cells (in words)” value (MV4-11 cells [2]) is reported as “no activity in cells”.

In the case of `Cc1c(Cl)cccc1S(=O)(=O)Nc1ccc2c(c1)C(=O)N(C1CCC(=O)NC1=O)C2=O` (stereo not shown) [compound 7, 3-Chloro-N-(2-(2,6-dioxopiperidin-3-yl)-1,3-dioxoisoindolin-5-yl)-2-methylbenzenesulfonamide], the EC50 (MV4-11 cells [2]; MV4-11, 72 h, read-out: EC50 (nM) MV4-11) is reported as 52 nM, the EC50 (MV4-11 cells [2]; MV4-11, read-out: MV4-11 EC50 (μM)) is reported as 52 nM and the EC50 (MB002 cells) is reported as 5010 nM. For the same molecule, the “antiproliferative effect across the five cell lines (in words)” value [1] was “demonstrated antiproliferative activities across the panel”, the “IKZF1 degradation after 4 h (in words)” value (IKZF1 [3]) was “did not significantly degrade IKZF1” and the “IKZF1(ZF2)-CRBN/DDB1 complex formation, AlphaScreen signal (in words)” value (“IKZF1(ZF2)-CRBN/DDB1 complex formation” for short) (IKZF1(ZF2)-CRBN/DDB1) was “neither 6 nor 7 showed a signal; also recorded: showed no effect even at the highest concentration”. For the same molecule, the “antiproliferative effect in the presence of lenalidomide (in words)” value (MV4-11 cells [4]) was “abrogating the antiproliferative effects”, the “antiproliferative activity in the absence of CRBN (in words)” value [5] was “abolished” and the “antiproliferation effect in cells expressing GSPT1(G575N) (in words)” value [6] was “completely abrogated”. The “degradation of GSPT1(G575N) mutant (in words)” value (GSPT1(G575N)) was “not degraded”, the “timepoint at which caspase activation was observed” value (caspase 3/7) was 24 h and the “IKZF1 protein levels in GSPT1(G575N) mutant cell line (in words)” value (IKZF1 [7]) was “unaffected”. The “IKZF1 degradation after 4 h (in words)” value (IKZF1 [7]) was “did not significantly degrade IKZF1”.

In the case of `Cc1ccccc1S(=O)(=O)Nc1ccc2c(c1)C(=O)N(C1CCC(=O)NC1=O)C2=O` (stereo not shown) [compound 13, N-(2-(2,6-Dioxopiperidin-3-yl)-1,3-dioxoisoindolin-5-yl)-2-methylbenzenesulfonamide], the “activity in cells (in words)” value (MV4-11 cells [2]) is reported as “lack of potent cell activity”.

In the case of `Nc1cccc2c1C(=O)N(C1CCC(=O)NC1=O)C2=O` (stereo not shown) [pomalidomide], the “antiproliferative effect across the five cell lines (in words)” value [1] is reported as “insensitive”.

For `Cc1ccc(NC(=O)NCc2ccc3c(c2)CN(C2CCC(=O)NC2=O)C3=O)cc1Cl` (stereo not shown) [CC-885], the “antiproliferative effect across the five cell lines (in words)” value [1] was “displayed antiproliferative effects in all five cell lines”.

With `O=C1CCC(N2C(=O)c3ccc(NS(=O)(=O)c4cccc(OC(F)(F)F)c4)cc3C2=O)C(=O)N1` (stereo not shown) [compound 10, N-(2-(2,6-Dioxopiperidin-3-yl)-1,3-dioxoisoindolin-5-yl)-3-(trifluoromethoxy)benzenesulfonamide] the “activity in cells (in words)” value (MV4-11 cells [2]) was “no activity in cells”, the “effect on GSPT1 protein level (in words)” value (GSPT1) was “no effects on the protein levels” and the “effect on IKZF1 protein level (in words)” value (IKZF1 [7]; immunoblot, MV4-11, 4 h) was “no effects on the protein levels”.

For `Cc1ccc(S(=O)(=O)Nc2ccc3c(c2)C(=O)N(C2CCC(=O)NC2=O)C3=O)cc1Cl` (stereo not shown) [compound 9, 3-Chloro-N-(2-(2,6-dioxopiperidin-3-yl)-1,3-dioxoisoindolin-5-yl)-4-methylbenzenesulfonamide], the “activity in cells (in words)” value (MV4-11 cells [2]) was “no effect in cellular assays”.

In the case of `O=C1CCC(N2C(=O)c3ccccc3C2=O)C(=O)N1` (stereo not shown) [thalidomide], the “antiproliferative effect across the five cell lines (in words)” value [1] is reported as “insensitive”.

For `O=C1CCC(N2C(=O)c3ccc(NS(=O)(=O)c4ccccc4OC(F)(F)F)cc3C2=O)C(=O)N1` (stereo not shown) [compound 6, N-(2-(2,6-Dioxopiperidin-3-yl)-1,3-dioxoisoindolin-5-yl)-2-(trifluoromethoxy)benzenesulfonamide], the “activity in cells (in words)” value (MV4-11 cells [2]) was “most potent compound in the series”, the EC50 (MB002 cells) was 726 nM and the “antiproliferative effect across the five cell lines (in words)” value [1] was “demonstrated antiproliferative activities across the panel”. For the same molecule, the “IKZF1 degradation after 4 h (in words)” value (IKZF1 [3]) was “did not significantly degrade IKZF1”, the “IKZF1(ZF2)-CRBN/DDB1 complex formation” value (IKZF1(ZF2)-CRBN/DDB1) was “neither 6 nor 7 showed a signal; also recorded: showed no effect even at the highest concentration” and the “antiproliferative effect in the presence of lenalidomide (in words)” value (MV4-11 cells [4]) was “abrogating the antiproliferative effects”. For the same molecule, the “antiproliferative activity in the absence of CRBN (in words)” value [5] was “abolished”, the “antiproliferation effect in cells expressing GSPT1(G575N) (in words)” value [6] was “completely abrogated” and the “degradation of GSPT1(G575N) mutant (in words)” value (GSPT1(G575N)) was “not degraded”. For the same molecule, the “timepoint at which caspase activation was observed” value (caspase 3/7) was 8 h, the “abundance of CNTNAP4 and SERPINF1 (in words)” value (MV4-11 cells [8]) was “less pronounced but statistically significant reductions” and the “abundance of IMiD neosubstrates IKZF1/3 and CK1α (in words)” value (MV4-11 cells [8]) was “not affected”. For the same molecule, the “proteins most reduced in abundance (in words)” value (MV4-11 cells [8]; 8927 quantified proteins) was “reduced most potently and selectively abundance of GSPT1 and GSPT2”, the CLint scaled at 4 h, 10 µM [9] was 12 mL/min/kg and the CLint scaled at 4 h, 10 µM [10] was 4 mL/min/kg. The “IKZF1 protein levels in GSPT1(G575N) mutant cell line (in words)” value (IKZF1 [7]) was “unaffected” and the “IKZF1 degradation after 4 h (in words)” value (IKZF1 [7]) was “did not significantly degrade IKZF1”.

For `O=C1CCC(N2C(=O)c3ccc(NS(=O)(=O)c4ccccc4)cc3C2=O)C(=O)N1` (stereo not shown) [compound 8, N-(2-(2,6-Dioxopiperidin-3-yl)-1,3-dioxoisoindolin-5-yl)benzenesulfonamide], the “activity in cells (in words)” value (MV4-11 cells [2]) was “inactive”.

For `O=C1CC[C@H](N2Cc3c(OCc4ccc(CN5CCOCC5)cc4)cccc3C2=O)C(=O)N1` [CC-220, reference compound], the “IKZF1(ZF2)-CRBN/DDB1 complex formation” value (IKZF1(ZF2)-CRBN/DDB1) is listed as “strong dose response; also recorded: dose-dependent AlphaScreen signal” and the “potency in cells relative to lenalidomide” value [11] is listed as 10 fold.
